Like-named read-outs stand apart in the source and are kept apart here. Values belong to the compound of their own block, whether it stands above or below them.
Assays:
PI3K α = PI3K α (Homo sapiens, UniProt P42336); assay: PI 3-Kinase (human) HTRF assay, PI3K α
PI3K β = PI3K β (Homo sapiens, UniProt P42338); assay: PI 3-Kinase (human) HTRF assay, PI3K β
PI3K γ = PI3K γ (Homo sapiens, UniProt P48736); assay: PI 3-Kinase (human) HTRF assay, PI3K γ
PI3K δ = PI3K δ (Homo sapiens, UniProt O00329); assay: PI 3-Kinase (human) HTRF assay, PI3K δ
mTOR = molecular target: T1, mTOR (Homo sapiens, UniProt P42345); assay: mTOR kinase inhibition assay (radiometric or LanthaScreen TR-FRET); assay type: biochemical; details: read-out: mTORC IC50
T1 construct: purchased Invitrogen

[1] = read-out: PI3K α IC50, in vitro
[2] = read-out: PI3K β IC50, in vitro
[3] = read-out: PI3K γ IC50, in vitro
[4] = read-out: PI3K δ IC50, in vitro

PI3K α, sequence (P42336 whole entry): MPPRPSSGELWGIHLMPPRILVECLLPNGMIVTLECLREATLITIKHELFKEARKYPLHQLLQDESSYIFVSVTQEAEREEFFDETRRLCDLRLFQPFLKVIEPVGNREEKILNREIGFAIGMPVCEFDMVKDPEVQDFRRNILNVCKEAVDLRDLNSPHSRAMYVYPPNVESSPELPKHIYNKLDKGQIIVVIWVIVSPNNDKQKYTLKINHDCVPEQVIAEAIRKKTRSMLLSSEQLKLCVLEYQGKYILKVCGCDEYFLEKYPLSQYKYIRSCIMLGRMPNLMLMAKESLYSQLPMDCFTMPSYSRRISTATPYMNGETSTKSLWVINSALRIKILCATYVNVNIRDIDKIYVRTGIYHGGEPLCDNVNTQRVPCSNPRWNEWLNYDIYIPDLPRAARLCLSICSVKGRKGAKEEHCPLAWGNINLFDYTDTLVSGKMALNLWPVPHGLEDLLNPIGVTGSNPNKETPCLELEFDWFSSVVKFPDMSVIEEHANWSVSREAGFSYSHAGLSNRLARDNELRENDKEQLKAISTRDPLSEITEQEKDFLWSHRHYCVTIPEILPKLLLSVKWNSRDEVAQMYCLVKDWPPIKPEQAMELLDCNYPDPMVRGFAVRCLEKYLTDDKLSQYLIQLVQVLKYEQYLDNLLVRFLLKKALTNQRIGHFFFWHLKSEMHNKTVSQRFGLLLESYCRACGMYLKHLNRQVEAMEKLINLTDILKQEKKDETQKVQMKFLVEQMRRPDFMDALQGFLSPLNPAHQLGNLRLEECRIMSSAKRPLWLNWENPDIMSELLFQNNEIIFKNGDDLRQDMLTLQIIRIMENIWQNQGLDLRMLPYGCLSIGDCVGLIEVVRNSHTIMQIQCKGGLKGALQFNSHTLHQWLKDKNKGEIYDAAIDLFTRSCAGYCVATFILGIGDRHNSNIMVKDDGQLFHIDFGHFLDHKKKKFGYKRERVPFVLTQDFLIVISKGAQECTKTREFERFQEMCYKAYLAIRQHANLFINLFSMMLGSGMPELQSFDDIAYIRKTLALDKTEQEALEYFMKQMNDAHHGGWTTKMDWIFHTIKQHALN
PI3K α, sequence (P27986 whole entry partner): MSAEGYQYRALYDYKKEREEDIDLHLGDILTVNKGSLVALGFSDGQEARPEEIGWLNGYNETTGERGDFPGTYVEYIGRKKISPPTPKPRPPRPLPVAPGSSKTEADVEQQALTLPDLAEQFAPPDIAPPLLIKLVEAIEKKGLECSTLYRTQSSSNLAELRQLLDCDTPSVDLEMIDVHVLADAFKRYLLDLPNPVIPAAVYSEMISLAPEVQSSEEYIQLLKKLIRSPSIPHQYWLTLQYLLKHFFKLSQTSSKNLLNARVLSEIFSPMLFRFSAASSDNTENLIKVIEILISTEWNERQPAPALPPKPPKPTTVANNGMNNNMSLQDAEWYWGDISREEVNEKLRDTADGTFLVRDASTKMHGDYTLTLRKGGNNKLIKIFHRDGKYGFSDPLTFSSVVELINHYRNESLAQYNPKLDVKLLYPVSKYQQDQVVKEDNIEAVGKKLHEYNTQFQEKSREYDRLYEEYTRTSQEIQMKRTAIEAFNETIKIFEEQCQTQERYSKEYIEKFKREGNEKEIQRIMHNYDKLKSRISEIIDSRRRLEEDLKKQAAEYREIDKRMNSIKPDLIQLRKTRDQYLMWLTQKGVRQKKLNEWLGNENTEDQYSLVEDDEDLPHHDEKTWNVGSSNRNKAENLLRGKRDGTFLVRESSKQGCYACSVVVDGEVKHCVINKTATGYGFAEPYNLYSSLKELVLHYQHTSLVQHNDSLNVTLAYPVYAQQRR
PI3K β, sequence (P42338 whole entry): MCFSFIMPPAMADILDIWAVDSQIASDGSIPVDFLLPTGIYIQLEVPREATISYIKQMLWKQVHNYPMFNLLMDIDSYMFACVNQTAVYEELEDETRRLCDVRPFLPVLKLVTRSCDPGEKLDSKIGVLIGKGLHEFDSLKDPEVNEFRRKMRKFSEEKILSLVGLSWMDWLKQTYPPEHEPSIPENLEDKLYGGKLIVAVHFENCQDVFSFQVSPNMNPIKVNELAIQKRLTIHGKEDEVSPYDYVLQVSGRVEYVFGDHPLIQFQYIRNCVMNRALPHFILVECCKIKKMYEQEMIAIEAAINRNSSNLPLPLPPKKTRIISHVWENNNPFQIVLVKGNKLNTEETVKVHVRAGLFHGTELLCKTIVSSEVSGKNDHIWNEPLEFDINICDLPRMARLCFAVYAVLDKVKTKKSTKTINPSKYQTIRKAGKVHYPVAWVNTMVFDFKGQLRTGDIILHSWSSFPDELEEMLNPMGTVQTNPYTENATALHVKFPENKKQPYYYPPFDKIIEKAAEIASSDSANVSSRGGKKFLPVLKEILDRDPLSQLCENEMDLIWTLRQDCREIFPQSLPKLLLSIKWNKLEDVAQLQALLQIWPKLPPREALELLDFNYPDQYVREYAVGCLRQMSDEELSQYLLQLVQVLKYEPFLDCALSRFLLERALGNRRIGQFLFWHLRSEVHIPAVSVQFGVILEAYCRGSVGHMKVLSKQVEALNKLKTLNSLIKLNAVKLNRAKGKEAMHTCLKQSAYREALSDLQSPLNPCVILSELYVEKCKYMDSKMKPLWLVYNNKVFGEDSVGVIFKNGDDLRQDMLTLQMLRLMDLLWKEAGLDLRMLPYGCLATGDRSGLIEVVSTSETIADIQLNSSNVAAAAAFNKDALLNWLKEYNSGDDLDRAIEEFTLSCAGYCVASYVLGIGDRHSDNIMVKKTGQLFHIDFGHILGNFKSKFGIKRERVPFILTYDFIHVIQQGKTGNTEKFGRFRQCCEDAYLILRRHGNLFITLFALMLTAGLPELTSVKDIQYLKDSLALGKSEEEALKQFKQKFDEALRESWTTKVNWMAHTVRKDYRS
PI3K β, sequence (P27986 whole entry partner): as the sequence (P27986 whole entry partner) above
PI3K γ, sequence (P48736 whole entry): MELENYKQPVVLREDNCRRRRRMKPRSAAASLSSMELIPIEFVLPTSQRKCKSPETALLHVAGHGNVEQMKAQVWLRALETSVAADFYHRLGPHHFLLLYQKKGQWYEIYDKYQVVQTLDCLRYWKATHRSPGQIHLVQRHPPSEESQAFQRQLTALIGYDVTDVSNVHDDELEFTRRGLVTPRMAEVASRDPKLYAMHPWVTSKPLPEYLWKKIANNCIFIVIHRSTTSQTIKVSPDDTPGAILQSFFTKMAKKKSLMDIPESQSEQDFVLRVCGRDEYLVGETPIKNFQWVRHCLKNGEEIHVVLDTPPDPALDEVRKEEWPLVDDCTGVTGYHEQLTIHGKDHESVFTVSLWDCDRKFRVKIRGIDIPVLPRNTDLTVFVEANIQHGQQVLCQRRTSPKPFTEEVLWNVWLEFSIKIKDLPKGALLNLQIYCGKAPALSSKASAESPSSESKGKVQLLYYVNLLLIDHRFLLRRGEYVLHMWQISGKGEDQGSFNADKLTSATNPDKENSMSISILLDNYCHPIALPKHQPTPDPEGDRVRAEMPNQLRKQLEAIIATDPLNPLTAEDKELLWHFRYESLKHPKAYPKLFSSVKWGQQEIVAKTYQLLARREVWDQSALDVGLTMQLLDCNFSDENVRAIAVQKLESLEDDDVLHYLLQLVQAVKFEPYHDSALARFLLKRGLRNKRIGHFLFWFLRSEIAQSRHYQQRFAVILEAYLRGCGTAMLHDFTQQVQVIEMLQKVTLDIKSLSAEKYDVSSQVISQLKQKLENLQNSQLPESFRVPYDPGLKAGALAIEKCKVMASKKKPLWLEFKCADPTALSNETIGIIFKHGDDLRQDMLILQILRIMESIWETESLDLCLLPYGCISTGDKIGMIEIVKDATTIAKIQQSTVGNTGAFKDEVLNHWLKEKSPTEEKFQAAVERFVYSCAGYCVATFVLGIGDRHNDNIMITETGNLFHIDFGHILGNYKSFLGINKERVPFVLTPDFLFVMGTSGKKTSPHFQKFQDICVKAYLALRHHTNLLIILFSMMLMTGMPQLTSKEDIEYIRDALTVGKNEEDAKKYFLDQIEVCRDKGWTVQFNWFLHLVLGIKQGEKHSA
PI3K δ, sequence (O00329 whole entry): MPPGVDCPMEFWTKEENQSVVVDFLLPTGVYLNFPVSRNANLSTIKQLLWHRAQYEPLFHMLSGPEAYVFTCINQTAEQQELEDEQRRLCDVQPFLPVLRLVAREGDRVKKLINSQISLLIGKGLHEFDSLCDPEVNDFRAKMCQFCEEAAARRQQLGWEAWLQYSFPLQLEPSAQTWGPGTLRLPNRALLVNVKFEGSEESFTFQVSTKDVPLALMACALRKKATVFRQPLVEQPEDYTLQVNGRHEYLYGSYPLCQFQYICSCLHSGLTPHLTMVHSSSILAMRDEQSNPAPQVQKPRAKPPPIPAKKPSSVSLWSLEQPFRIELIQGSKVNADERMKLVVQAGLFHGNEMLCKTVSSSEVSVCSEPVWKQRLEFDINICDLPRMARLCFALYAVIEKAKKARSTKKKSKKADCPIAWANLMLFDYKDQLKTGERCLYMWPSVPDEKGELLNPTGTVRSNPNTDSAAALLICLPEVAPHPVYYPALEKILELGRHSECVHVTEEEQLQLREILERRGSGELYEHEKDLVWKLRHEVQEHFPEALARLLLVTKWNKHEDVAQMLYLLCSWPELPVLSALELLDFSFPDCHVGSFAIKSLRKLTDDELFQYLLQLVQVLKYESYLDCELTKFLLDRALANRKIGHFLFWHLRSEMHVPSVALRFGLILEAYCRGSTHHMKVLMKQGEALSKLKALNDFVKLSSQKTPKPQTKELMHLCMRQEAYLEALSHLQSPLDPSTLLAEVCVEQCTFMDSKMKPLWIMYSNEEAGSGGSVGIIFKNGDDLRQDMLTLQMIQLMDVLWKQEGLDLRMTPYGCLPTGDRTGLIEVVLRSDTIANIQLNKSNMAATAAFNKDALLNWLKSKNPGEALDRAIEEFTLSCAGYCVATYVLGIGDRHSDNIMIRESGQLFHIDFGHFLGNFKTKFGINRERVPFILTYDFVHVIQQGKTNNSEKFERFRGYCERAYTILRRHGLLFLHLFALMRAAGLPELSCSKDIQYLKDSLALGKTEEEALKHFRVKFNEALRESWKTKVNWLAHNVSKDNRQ
PI3K δ, sequence (P27986 whole entry partner): as the sequence (P27986 whole entry partner) above

IC50 (PI3K α): < 0.1 µM | IC50 (PI3K β): < 1 µM | IC50 (PI3K γ): < 1 µM | IC50 (PI3K δ): < 1 µM
Compound: Nc1nsc2cc(-c3ccc4nccc(-c5ccncc5)c4c3)ccc12 [Compound 13]

Compound: COC(=O)Nc1noc2ccc(-c3nn(C(C)C)c4ncnc(N)c34)cc12 [Compound 20]
IC50 (PI3K α): < 10 µM | IC50 (PI3K δ): < 10 µM

Compound: COc1cc2cc(-c3nn(C(C)C)c4ncnc(N)c34)[nH]c2cc1Cl [Compound 29]
IC50 (mTOR; Table 2): > 0.5 µM

Compound: CC(C)n1nc(-c2cc3cc(O)ccc3[nH]2)c2c(N)nccc21 [Compound 45]
IC50 (mTOR; Table 2): > 0.5 µM

IC50 (PI3K α; read-out: PI3K α IC50): < 0.1 µM
Compound: Nc1nc2cc(-c3ccc4ncc(C(=O)N5CCOCC5)n4c3)ccc2o1 [Compound 54]

IC50 (PI3K α; read-out: PI3K α IC50): < 0.1 µM | IC50 (PI3K β; read-out: PI3K β IC50): < 10 µM | IC50 (PI3K γ; read-out: PI3K γ IC50): < 0.1 µM | IC50 (PI3K δ; read-out: PI3K δ IC50): < 0.1 µM
Compound: Nc1nc2cc(-c3ccc4ncc(NC5CCC(O)CC5)nc4c3)ccc2o1 (stereo not shown) [Compound 128]

IC50 (PI3K α; read-out: PI3K α IC50): > 10 µM | IC50 (PI3K β; read-out: PI3K β IC50): > 10 µM | IC50 (PI3K γ; read-out: PI3K γ IC50): > 10 µM | IC50 (PI3K δ; read-out: PI3K δ IC50): > 10 µM
Compound: CC(=O)Nc1nc2ccc(-c3nc(N4CCOCC4)c4sc(CN5CCN(S(C)(=O)=O)CC5)cc4n3)cc2s1 [Compound 130]

IC50 (PI3K α): < 1 µM | IC50 (PI3K β): > 10 µM | IC50 (PI3K γ): < 10 µM | IC50 (PI3K δ): > 10 µM
Compound: CCN1CCN(C(=O)c2cnc3ncc(-c4ccc5oc(N)nc5c4)cn23)CC1 [Compound 141]

Compound: Nc1nc2cc(-c3ccc4ncc(C(=O)N5CCN(CC6CC6)CC5)n4c3)ccc2o1 [Compound 161]
IC50 (PI3K α; read-out: PI3K α IC50): < 1 µM | IC50 (PI3K β; read-out: PI3K β IC50): < 10 µM | IC50 (PI3K γ; read-out: PI3K γ IC50): < 10 µM | IC50 (PI3K δ; read-out: PI3K δ IC50): < 10 µM

IC50 (PI3K α; read-out: PI3K α IC50): < 0.1 µM | IC50 (PI3K β; read-out: PI3K β IC50): < 1 µM | IC50 (PI3K δ; read-out: PI3K δ IC50): < 1 µM
Compound: CC(C)[C@H](N)C(=O)N1CCN(c2cnc3ccc(-c4ccc5oc(N)nc5c4)cc3n2)CC1 [Compound 269]

IC50 (PI3K α; read-out: PI3K α IC50): < 0.1 µM | IC50 (PI3K β; read-out: PI3K β IC50): > 10 µM | IC50 (PI3K γ; read-out: PI3K γ IC50): < 0.1 µM | IC50 (PI3K δ; read-out: PI3K δ IC50): < 10 µM
Compound: Cc1ccc(NC(=O)c2cnc3ccc(-c4ccc5oc(N)nc5c4)cn23)cn1 [Compound 294]

IC50 (PI3K α; read-out: PI3K α IC50): < 0.1 µM | IC50 (PI3K β; read-out: PI3K β IC50): < 1 µM | IC50 (PI3K δ; read-out: PI3K δ IC50): < 1 µM
Compound: CN1CCN(CCNC(=O)c2cnc3ccc(-c4ccc5oc(N)nc5c4)cn23)CC1 [Compound 306]

IC50 (PI3K α; read-out: PI3K α IC50): < 1 µM | IC50 (PI3K β; read-out: PI3K β IC50): < 0.1 µM | IC50 (PI3K δ; read-out: PI3K δ IC50): < 10 µM
Compound: C[C@H]1CN(c2cnc3ccc(-c4ccc5oc(N)nc5c4)cc3n2)CCN1C [Compound 332]

IC50 (PI3K α): > 10 µM | IC50 (PI3K β): > 10 µM | IC50 (PI3K γ): > 10 µM | IC50 (PI3K δ): > 10 µM
Compound: C[C@H]1CN(c2cnc3scc(-c4ccc5oc(N)nc5c4)c3n2)CCN1 [Compound 399]

IC50 (PI3K α; [1]): < 10 µM | IC50 (PI3K β; [2]): > 10 µM | IC50 (PI3K γ; [3]): > 10 µM | IC50 (PI3K δ; [4]): > 10 µM
Compound: Nc1cc(-c2ccc3ncc(C(=O)N4CCOCC4)n3c2)cnc1Cl [Compound 415]

IC50 (PI3K α; [1]): > 10 µM | IC50 (PI3K β; [2]): > 10 µM | IC50 (PI3K γ; [3]): > 10 µM | IC50 (PI3K δ; [4]): > 10 µM
Compound: COc1ccc(CNc2n[nH]c3cc(-c4ccc5oc(N)nc5c4)ccc23)cc1 [Compound 429]

IC50 (PI3K α; [1]): > 10 µM | IC50 (PI3K β; [2]): > 10 µM | IC50 (PI3K γ; [3]): > 10 µM | IC50 (PI3K δ; [4]): > 10 µM
Compound: CNS(=O)(=O)c1cc(-c2ccc3ncc(C(=O)N4CCOCC4)n3c2)ccc1OC [Compound 445]

IC50 (PI3K α; [1]): < 1 µM | IC50 (PI3K β; [2]): < 10 µM | IC50 (PI3K δ; [4]): < 10 µM
Compound: O=C(c1cnc2ccc(-c3ccc(Cl)c(NS(=O)(=O)c4ccc(F)cc4F)c3)cn12)N1CCOCC1 [Compound 461]

IC50 (PI3K α; [1]): < 1 µM | IC50 (PI3K β; [2]): > 10 µM | IC50 (PI3K δ; [4]): > 10 µM
Compound: [2H]C1([2H])OC([2H])([2H])C([2H])([2H])N(C(=O)c2cnc3ccc(-c4ccc5oc(N)nc5c4)cn23)C1([2H])[2H] [Compound 529]

IC50 (PI3K α; [1]): < 0.1 µM | IC50 (PI3K β; [2]): < 10 µM | IC50 (PI3K δ; [4]): > 10 µM
Compound: [2H]c1c(-c2ccc3ncc(C(=O)N4CCOCC4)n3c2)c([2H])c2nc(N)oc2c1[2H] [Compound 531]

Compound: CN1CC2CN(C(=O)c3cnc4ccc(-c5ccc6oc(N)nc6c5)cn34)CC2C1 (stereo not shown) [Compound 533]
IC50 (mTOR; in vitro): > 10 µM

— patent US9295673B2, “Combination of mTOR inhibitors and P13-kinase inhibitors, and uses thereof” (Intellikine LLC, priority 2011, dated 2016)
